Measurements taken from patent US20060167075A1, “Modulators of FAAH” (priority 2005, published 2006).

What was measured:
FAAH [1] = target: T1, FAAH (Rattus norvegicus, UniProt P97612); experiment: FAAH activity in rat brain membrane (RBM) homogenate, 3H-anandamide hydrolysis; format: biochemical; settings: 10 min at 37° C., pH 6.5
T1 construct: FAAH activity was assayed in the respective homogenates (Rat brain or Human brain); from tissue; host or cells: rat brain membrane homogenate (Charles River CD strain)
T1 sequence (P97612 1-579): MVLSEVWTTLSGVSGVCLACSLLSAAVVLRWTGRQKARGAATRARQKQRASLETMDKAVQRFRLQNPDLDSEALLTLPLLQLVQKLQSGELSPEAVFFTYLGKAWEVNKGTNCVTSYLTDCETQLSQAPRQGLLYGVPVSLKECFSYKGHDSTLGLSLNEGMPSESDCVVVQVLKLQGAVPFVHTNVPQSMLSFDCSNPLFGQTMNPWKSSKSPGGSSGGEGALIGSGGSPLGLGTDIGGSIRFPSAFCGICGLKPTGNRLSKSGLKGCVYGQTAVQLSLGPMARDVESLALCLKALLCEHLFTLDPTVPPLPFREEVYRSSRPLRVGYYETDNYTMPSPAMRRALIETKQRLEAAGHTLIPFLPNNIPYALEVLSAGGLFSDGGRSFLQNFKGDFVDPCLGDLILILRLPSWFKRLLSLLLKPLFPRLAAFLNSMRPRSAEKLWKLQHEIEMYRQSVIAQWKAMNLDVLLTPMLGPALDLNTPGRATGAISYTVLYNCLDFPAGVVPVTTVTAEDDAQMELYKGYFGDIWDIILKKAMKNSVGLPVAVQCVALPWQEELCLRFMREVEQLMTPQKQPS
Experimental: (§1) To assess FAAH inhibition, compounds were tested in an assay using rat brain microsomes and an assay using human brain microsomes using the methods described below.
Nine adult rats (Charles River CD strain, female, 200 g) were anaesthetized with isofluorane and rapidly decapitated. Each brain was quickly removed and chilled in tubes (3 brains per tube) on ice. Total wet weight of the 9 brains was ˜18 g. 25 mL of homogenization buffer (20 mM HEPES buffer, pH 7.0, with 1 mM MgCl2) was added to each tube. The brains were homogenized on ice for 1 minute using an Omni GLH homogenizer (Omni International, Marietta, Ga.). The homogenates were transferred to three centrifuge tubes and centrifuged at 36,500 g for 20 minutes at 4° C. The supernatant was discarded and each pellet was re-suspended in 25 ml homogenization buffer. The resuspended material was again centrifuged (36,500g, 20 min at 4° C.). The pellets were combined by resuspension in 10 mL of homogenization buffer and incubated in a 37° C. water bath for 15 min. The tube was then placed on ice for 5 min followed by centrifugation at 36,500 g for 20 minutes at 4° C. The supernatant was discarded and the membrane pellet was then resuspended in 40 mL of resuspension buffer (50 mM Tris-HCl buffer, pH 7.4, containing 1 mM EDTA and 3 mM MgCl2). A Bradford Protein assay was performed to determine protein concentration. […]
(§2) Samples were placed on ice to terminate the reactions. […] Radioactivity (corresponding to FAAH-catalyzed breakdown of ^3H-anandamide) found in aliquots (0.2 ml) of the aqueous phase was determined by liquid scintillation counting with quench correction.
(§3) The method of Wilson et al. was modified by acidifying the reaction mixtures by the addition of 10 μl of sodium phosphate solution [0.5M (pH 2.0)] after reactions were incubated at 37° C. for 10 min and chilled on ice. […] The columns were centrifuged and the eluate was counted as described by Wilson et al.

FAAH [2] = target: T2, FAAH (Homo sapiens, UniProt O00519); experiment: FAAH activity in human brain membrane (HBM) homogenate, 3H-anandamide hydrolysis; format: biochemical; settings: 10 min at 37° C., pH 6.5
T2 construct: FAAH activity was assayed in the respective homogenates (Rat brain or Human brain); tissue Analytical Biological Services (ABS), Inc; host or cells: human brain cortex membrane homogenate, pooled from three donors
T2 sequence (O00519 1-579): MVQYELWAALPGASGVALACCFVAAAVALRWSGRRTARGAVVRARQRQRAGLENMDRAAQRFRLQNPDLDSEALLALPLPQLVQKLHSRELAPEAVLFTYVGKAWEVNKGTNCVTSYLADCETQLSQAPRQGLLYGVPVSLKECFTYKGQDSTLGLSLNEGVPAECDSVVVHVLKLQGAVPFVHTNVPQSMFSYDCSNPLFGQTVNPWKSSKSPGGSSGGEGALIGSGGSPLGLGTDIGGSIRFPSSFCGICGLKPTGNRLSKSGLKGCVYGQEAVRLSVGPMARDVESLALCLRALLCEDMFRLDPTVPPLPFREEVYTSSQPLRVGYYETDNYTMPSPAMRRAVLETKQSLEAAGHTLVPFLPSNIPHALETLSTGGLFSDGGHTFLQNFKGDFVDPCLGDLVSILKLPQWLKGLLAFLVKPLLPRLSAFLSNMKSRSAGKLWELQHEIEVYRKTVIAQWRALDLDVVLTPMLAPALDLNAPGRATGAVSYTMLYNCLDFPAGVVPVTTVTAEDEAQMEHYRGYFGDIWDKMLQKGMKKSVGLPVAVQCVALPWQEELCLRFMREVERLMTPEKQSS
Experimental: as §1
10 g of normal human brain cortex tissue pooled from three donors was purchased from Analytical Biological Services (ABS), Inc. (Wilmington, Del.). The tissue had been collected by ABS, Inc. ˜4 hrs post mortem and was flash frozen and stored at −80° C. The brain tissue was thawed and transferred to a large ceramic mortar on ice. 50 mL of ice-cold homogenization buffer (20 mM HEPES buffer, pH 7.0, with 1 mM MgCl2) was added to the mortar and the tissue was homogenized with a pestle. The homogenate was centrifuged at 36,500 g for 20 minutes at 4° C. The supernatants were discarded and the pellets re-suspended in homogenization buffer and centrifuged as before. The supernatants were again discarded and the pellets were re-suspended in 30 ml homogenization buffer and incubated in a 37° C. water bath for 20 min. The homogenate was then centrifuged as before. The supernatant was discarded and the membrane pellets were re-suspended in 30 ml resuspension buffer (50 mM Tris-HCl buffer, pH 7.4, containing 1 mM EDTA and 3 mM MgCl2). A Bradford Protein assay was performed to determine protein concentration. The protein suspension was aliquotted into screw cap Cryo tubes each containing ˜200 μL of suspension, flash frozen in liquid nitrogen and stored at −80° C. until used for the assay.
as §2, §3

Compound `Cc1ccc(-c2cc(C(F)(F)F)nn2-c2ccc(S(N)(=O)=O)cc2)cc1` [Celecoxib, 4-[[5-(p-tolyl)-3-(trifluoromethyl)-1H-pyrazol-1-yl]]benzenesulfonamide] has an IC50 (FAAH [1]) of 167 µM.
Work on `COc1ccc2c(c1)c(CC(=O)O)c(C)n2C(=O)c1ccc(Cl)cc1` [Indomethacin] yielded an IC50 (FAAH [2]) of 96 µM.
Compound `CS(=O)(=O)c1ccc(C2=C(c3ccccc3)C(=O)OC2)cc1` [Rofecoxib] has an IC50 (FAAH [2]) of 198 µM and an IC50 (FAAH [1]) of 452 µM.
`Cc1onc(-c2ccccc2)c1-c1ccc(S(N)(=O)=O)cc1` [Valdecoxib, 4-(5-methyl-3-phenyl-isoxazol-4-yl)benzenesulfonamide] showed an IC50 (FAAH [2]) of 41 µM and an IC50 (FAAH [1]) of 280 µM.
